Assay results from the NIST ThermoML archive (doi:10.1021/je7003929).

Experiment: xn = mol fraction of the nth substance listed
Details: Liquid, Vibrating tube method

c1ccc2sccc2c1 [benzo[b]thiophene] + CCCCCC
Details | mass density [kg/m3]
332.9 K, 1028 kPa, x2 = 0.4495 | 892.5
332.9 K, 2010 kPa, x2 = 0.4495 | 893.2
332.9 K, 3021 kPa, x2 = 0.4495 | 894.1
332.9 K, 4018 kPa, x2 = 0.4495 | 895.3
332.9 K, 5018 kPa, x2 = 0.4495 | 896.2
332.9 K, 6008 kPa, x2 = 0.4495 | 897
332.9 K, 7019 kPa, x2 = 0.4495 | 897.9
332.9 K, 8016 kPa, x2 = 0.4495 | 898.8
332.9 K, 9023 kPa, x2 = 0.4495 | 899.8
332.9 K, 10018 kPa, x2 = 0.4495 | 900.7
332.9 K, 11007 kPa, x2 = 0.4495 | 901.6
332.9 K, 12010 kPa, x2 = 0.4495 | 902.4
332.9 K, 13019 kPa, x2 = 0.4495 | 903.3
332.9 K, 14015 kPa, x2 = 0.4495 | 904.2
332.9 K, 15019 kPa, x2 = 0.4495 | 905
332.9 K, 16002 kPa, x2 = 0.4495 | 905.9
332.9 K, 17014 kPa, x2 = 0.4495 | 906.7
332.9 K, 18017 kPa, x2 = 0.4495 | 907.5
332.9 K, 19023 kPa, x2 = 0.4495 | 908.3
332.9 K, 20028 kPa, x2 = 0.4495 | 909.1
342.55 K, 1028 kPa, x2 = 0.2588 | 982.2
342.55 K, 2013 kPa, x2 = 0.2588 | 983.1
342.55 K, 3013 kPa, x2 = 0.2588 | 983.8
342.55 K, 4017 kPa, x2 = 0.2588 | 984.7
342.55 K, 5024 kPa, x2 = 0.2588 | 985.5
342.55 K, 6012 kPa, x2 = 0.2588 | 986.3
342.55 K, 7004 kPa, x2 = 0.2588 | 987.1
342.55 K, 8017 kPa, x2 = 0.2588 | 987.9
342.55 K, 9012 kPa, x2 = 0.2588 | 988.7
342.55 K, 10016 kPa, x2 = 0.2588 | 989.5
342.55 K, 11015 kPa, x2 = 0.2588 | 990.4
342.55 K, 12022 kPa, x2 = 0.2588 | 991.2
342.55 K, 13030 kPa, x2 = 0.2588 | 992
342.55 K, 14011 kPa, x2 = 0.2588 | 992.8
342.55 K, 15020 kPa, x2 = 0.2588 | 993.6
342.55 K, 16020 kPa, x2 = 0.2588 | 994.3
342.55 K, 17017 kPa, x2 = 0.2588 | 995.1
342.55 K, 18008 kPa, x2 = 0.2588 | 995.8
342.55 K, 19011 kPa, x2 = 0.2588 | 996.6
342.55 K, 20013 kPa, x2 = 0.2588 | 997.4
342.63 K, 1018 kPa, x2 = 0.0629 | 1085.6
342.63 K, 2039 kPa, x2 = 0.0629 | 1086.3
342.63 K, 3009 kPa, x2 = 0.0629 | 1087
342.63 K, 4022 kPa, x2 = 0.0629 | 1087.8
342.63 K, 5025 kPa, x2 = 0.0629 | 1088.5
342.63 K, 5925 kPa, x2 = 0.0629 | 1089.1
342.63 K, 7031 kPa, x2 = 0.0629 | 1089.9
342.63 K, 8009 kPa, x2 = 0.0629 | 1090.6
342.63 K, 9007 kPa, x2 = 0.0629 | 1091.3
342.63 K, 10024 kPa, x2 = 0.0629 | 1092
342.63 K, 11013 kPa, x2 = 0.0629 | 1092.7
342.63 K, 12012 kPa, x2 = 0.0629 | 1093.4
342.63 K, 13000 kPa, x2 = 0.0629 | 1094.1
342.63 K, 14019 kPa, x2 = 0.0629 | 1094.8
342.63 K, 15027 kPa, x2 = 0.0629 | 1095.4
342.63 K, 16019 kPa, x2 = 0.0629 | 1096.1
342.63 K, 17009 kPa, x2 = 0.0629 | 1096.8
342.63 K, 18015 kPa, x2 = 0.0629 | 1097.5
342.63 K, 19019 kPa, x2 = 0.0629 | 1098.2
342.63 K, 20018 kPa, x2 = 0.0629 | 1098.8
342.71 K, 1025 kPa, x2 = 0.9432 | 640.4
342.71 K, 2014 kPa, x2 = 0.9432 | 641.8
342.71 K, 3011 kPa, x2 = 0.9432 | 643.3
342.71 K, 4027 kPa, x2 = 0.9432 | 644.8
342.71 K, 5014 kPa, x2 = 0.9432 | 646.2
342.71 K, 6027 kPa, x2 = 0.9432 | 647.6
342.71 K, 7019 kPa, x2 = 0.9432 | 649
342.71 K, 8015 kPa, x2 = 0.9432 | 650.3
342.71 K, 9010 kPa, x2 = 0.9432 | 651.6
342.71 K, 10003 kPa, x2 = 0.9432 | 652.9
342.71 K, 11017 kPa, x2 = 0.9432 | 654.2
342.71 K, 12006 kPa, x2 = 0.9432 | 655.4
342.71 K, 13024 kPa, x2 = 0.9432 | 656.7
342.71 K, 14021 kPa, x2 = 0.9432 | 657.8
342.71 K, 15006 kPa, x2 = 0.9432 | 659
342.71 K, 16015 kPa, x2 = 0.9432 | 660.2
342.71 K, 17016 kPa, x2 = 0.9432 | 661.3
342.71 K, 18000 kPa, x2 = 0.9432 | 662.4
342.71 K, 19034 kPa, x2 = 0.9432 | 663.6
342.71 K, 20012 kPa, x2 = 0.9432 | 664.6
342.72 K, 1034 kPa, x2 = 0.7491 | 734.5
342.72 K, 2000 kPa, x2 = 0.7491 | 735.8
342.72 K, 3023 kPa, x2 = 0.7491 | 737
342.72 K, 4016 kPa, x2 = 0.7491 | 738.2
342.72 K, 5014 kPa, x2 = 0.7491 | 739.5
342.72 K, 6014 kPa, x2 = 0.7491 | 740.7
342.72 K, 7019 kPa, x2 = 0.7491 | 741.8
342.72 K, 8012 kPa, x2 = 0.7491 | 743
342.72 K, 9010 kPa, x2 = 0.7491 | 744.1
342.72 K, 10013 kPa, x2 = 0.7491 | 745.3
342.72 K, 11016 kPa, x2 = 0.7491 | 746.4
342.72 K, 12016 kPa, x2 = 0.7491 | 747.5
342.72 K, 13011 kPa, x2 = 0.7491 | 748.6
342.72 K, 14001 kPa, x2 = 0.7491 | 749.6
342.72 K, 15003 kPa, x2 = 0.7491 | 750.7
342.72 K, 16025 kPa, x2 = 0.7491 | 751.7
342.72 K, 17012 kPa, x2 = 0.7491 | 752.8
342.72 K, 18018 kPa, x2 = 0.7491 | 753.8
342.72 K, 19008 kPa, x2 = 0.7491 | 754.7
342.72 K, 20017 kPa, x2 = 0.7491 | 755.8
342.79 K, 1022 kPa, x2 = 0.4495 | 883.3
342.79 K, 2032 kPa, x2 = 0.4495 | 884.3
342.79 K, 3024 kPa, x2 = 0.4495 | 885.3
342.79 K, 4029 kPa, x2 = 0.4495 | 886.4
342.79 K, 5019 kPa, x2 = 0.4495 | 887.3
342.79 K, 6019 kPa, x2 = 0.4495 | 888.3
342.79 K, 7035 kPa, x2 = 0.4495 | 889.3
342.79 K, 8022 kPa, x2 = 0.4495 | 890.2
342.79 K, 9016 kPa, x2 = 0.4495 | 891.1
342.79 K, 10010 kPa, x2 = 0.4495 | 892
342.79 K, 11010 kPa, x2 = 0.4495 | 893
342.79 K, 12024 kPa, x2 = 0.4495 | 893.9
342.79 K, 13001 kPa, x2 = 0.4495 | 894.8
342.79 K, 14017 kPa, x2 = 0.4495 | 895.7
342.79 K, 15021 kPa, x2 = 0.4495 | 896.6
342.79 K, 16020 kPa, x2 = 0.4495 | 897.4
342.79 K, 17009 kPa, x2 = 0.4495 | 898.3
342.79 K, 18009 kPa, x2 = 0.4495 | 899.2
342.79 K, 19011 kPa, x2 = 0.4495 | 900
342.79 K, 20011 kPa, x2 = 0.4495 | 900.9
352.33 K, 1030 kPa, x2 = 0.2588 | 973.2
352.33 K, 2012 kPa, x2 = 0.2588 | 973.9
352.33 K, 3021 kPa, x2 = 0.2588 | 974.8
352.33 K, 4018 kPa, x2 = 0.2588 | 975.8
352.33 K, 5020 kPa, x2 = 0.2588 | 976.6
352.33 K, 6024 kPa, x2 = 0.2588 | 977.6
352.33 K, 7016 kPa, x2 = 0.2588 | 978.5
352.33 K, 8000 kPa, x2 = 0.2588 | 979.3
352.33 K, 9020 kPa, x2 = 0.2588 | 980.2
352.33 K, 10010 kPa, x2 = 0.2588 | 981
352.33 K, 11018 kPa, x2 = 0.2588 | 981.9
352.33 K, 12012 kPa, x2 = 0.2588 | 982.7
352.33 K, 13013 kPa, x2 = 0.2588 | 983.5
352.33 K, 14007 kPa, x2 = 0.2588 | 984.3
352.33 K, 15016 kPa, x2 = 0.2588 | 985.2
352.33 K, 16012 kPa, x2 = 0.2588 | 986
352.33 K, 17013 kPa, x2 = 0.2588 | 986.8
352.33 K, 18003 kPa, x2 = 0.2588 | 987.6
352.33 K, 19011 kPa, x2 = 0.2588 | 988.4
352.33 K, 20014 kPa, x2 = 0.2588 | 989.1
